Legend:
Type in all cases: functional
[1] = test system: Rhodotorula glutinis; assay: Antimicrobial activity against Rhodotorula glutinis ATCC 201718 assessed as relative growth at 50 ug/mL after 24 to 48 hrs relative to control
[2] = test system: Saccharomyces cerevisiae; assay: Antimicrobial activity against Saccharomyces cerevisiae CBS 1394 assessed as relative growth at 50 ug/mL after 24 to 48 hrs relative to control
[3] = test system: Rhodotorula glutinis; assay: Antimicrobial activity against Rhodotorula glutinis ATCC 201718 assessed as relative growth at 100 ug/mL after 24 to 48 hrs relative to control
[4] = test system: Saccharomyces cerevisiae; assay: Antimicrobial activity against Saccharomyces cerevisiae CBS 1394 assessed as relative growth at 100 ug/mL after 24 to 48 hrs relative to control

## CC(=O)c1ccc2c(c1)C=C/C(=C/Cl)CO2
[1]
  Activity: 58%
[2]
  Activity: 91%
[3]
  Activity: 40%
[4]
  Activity: 84%

## O=Cc1ccc2c(c1)C=C/C(=C/Cl)CO2
[1]
  Activity: 96%
[2]
  Activity: 91%
[3]
  Activity: 65%
[4]
  Activity: 87%

## OCc1ccc2c(c1)C=C/C(=C/Cl)CO2
[1]
  Activity: 5.5%
[2]
  Activity: 89%
[3]
  Activity: <1%
[4]
  Activity: 1%

— ChEMBL document CHEMBL1148125, “Total synthesis and bioactivity of some naturally occurring pterulones” (2002)
